Assay results taken from patent US20240024317A1, “CANCER TREATMENT USING BOSENTAN IN COMBINATION WITH A CHECKPOINT INHIBITOR” (Materia Therapeutics Inc., priority 2020, published 2024).

Assays:
[1] = test system: orthotopic E0771 breast tumors; assay: Pimonidazole hypoxia staining; format: in vivo, mice; conditions: 1 mg/kg; E0771 (FIG. 2A)
Protocol: Because reducing collagen I levels and tissue stiffness decompresses vessels, it was hypothesized that hypoxia, which is an indicator of decreased blood flow to the tumor, would be reduced with bosentan treatment. […] For the hypoxia studies, Mice bearing orthotopic E0771 or 4T1 breast tumors were injected (intraperitoneal) with 60 mg/kg of pimonidazole HCl at 2 hr prior to tumor removal. Prior to tumors excision, animals were anesthetized via Avertin (200 mg/kg, intraperitoneal). Primary tumors were then excised, fixed in 4% PFA, embedded in OCT and processed accordingly for IHC. Hypoxic regions were detected using the mouse anti-pimonidazole RED 549 conjugate antibody (HP7-100Kit, 1:100). Hypoxic area fraction across different treatment groups was normalized to DAPI staining. For fluorescent immunohistochemistry, tumors were removed, washed twice in 1× PBS for 10 min and incubated with 4% PFA overnight at 4° C. The fixative was aspirated, and samples washed twice in 1× PBS for 10 min. Fixed tissues were embedded in optimal cutting temperature compound in cryomolds (Tissue-Tek) and frozen completely at −20° C. […] CD31 signal was detected with Alexa Fluor-488 anti-rabbit IgG (H+L) and CD3 signal with Alexa Fluor-647 anti-rat IgG (H+L) secondary antibodies. Tumor associated T cell and vessel content was determined by the CD31 and CD3 area fraction normalized to DAPI staining. […]

4T1 tumors = assay: Tumor volume over time, bosentan pre-treatment plus anti-PD-1/anti-CTLA-4 (Example 5); format: in vivo, mice; conditions: pre-treated with bosentan 1 mg/kg, then immunotherapy cocktail
Protocol: Syngeneic tumor models and treatment protocols. Orthotopic models for murine mammary tumors were generated by implantation of 5×10^4 4T1 cancer cells in 40 μL of serum-free medium into the third mammary fat pad of 6-8 weeks-old BALB/c mice. Mice were purchased from the Cyprus Institute of Neurology and Genetics and all in vivo experiments were conducted in accordance with the animal welfare regulations and guidelines of the Republic of Cyprus and the European Union (European Directive 2010/63/EE and Cyprus Legislation for the protection and welfare of animals, Laws 1994-2013) under a license acquired and approved (No CY/EXP/PR.L2/2018, CY/EXP/PR.L14/2019, CY/EXP/PR.L15/2019, CY/EXP/PR.L03/2020) by the Cyprus Veterinary Services committee, the Cyprus national authority for monitoring animal research for all academic institutions.
Tranilast at 200 mg/kg, bosentan at 1 mg/kg, or equal volume of diluent (control group) was administered by intraperitoneal injection (i.p.) once a day for 14 days, starting from once the tumor volumes reached an average size of 5 mm diameter. […]
Planar dimensions (x, y) of tumor were monitored every 2-3 days using a digital caliper and tumor volume was estimated from the volume of an ellipsoid and assuming that the third dimension, z, is equal to the sqrt(x y). […]

In the case of `COc1ccccc1Oc1c(NS(=O)(=O)c2ccc(C(C)(C)C)cc2)nc(-c2ncccn2)nc1OCCO` [bosentan, 4-tert-butyl-N-[6-(2-hydroxy-ethoxy)-5-(2-methoxy-phenoxy)-2-(pyrimidin-2-yl)pyrimidin-4-yl] benzenesulfonamide], the “hypoxia (pimonidazole staining)” value [1] is reported as “reduced hypoxia” and the “tumor volume as a function of time” value (4T1 tumors) is reported as “effectively stop further tumor growth”.
